Assays:
HIVLAI RT 67N/70R/215I = assay: Drug susceptibility assay in P4/R5 cells, site-directed mutant; format: cell-based, HIV-1
Description: (§1) Drug susceptibility assays. NRTI susceptibility was determined in P4/R5 cells as described previously (Parikh, U. M., et al. 2005. Antimicrob. Agents Chemother. 49:1139-44). Briefly, threefold dilutions of inhibitor were added to P4/R5 cells in triplicate and cells were infected with an amount of virus that produced 100 relative units of light (RLU) in no drug, virus control wells. After 48 hours, the cells were lysed (Gal-Screen; Tropix/Applied Biosystems, Foster City, Calif.) and the RLU was measured using a ThermoLabSystems luminometer (Waltham, Mass.). The IC50 and fold-resistance were calculated as described above. IC50 values from at least three independent experiments were log10 transformed and compared for statistically significant differences using the two-sample Student's t test.
(§2) Construction of mutant recombinant HIV-1. Mutant recombinant plasmid clones of virus were generated by oligonucleotide site-directed mutagenesis as described previously (Shi, C., and J. W. Mellors. 1997. A recombinant retroviral system for rapid […] analysis of human immunodeficiency virus type 1 susceptibility to reverse transcriptase inhibitors. Antimicrob. Agents Chemother. 41:2781-5), using the p6HRT-MO plasmid. p6HRT-MO contains the entire RT and protease coding sequence as previously described (Le Grice, S. F., and F. Gruninger-Leitch. 1990. Rapid purification of homodimer and heterodimer HIV-1 reverse transcriptase by metal chelate affinity chromatography. Eur. J. Biochem. 187:307-14) and four silent restriction sites (Xma I, Mlu I, Xba I, and NgoM IV from the 5′ to 3′ end of RT at codons 14, 358, 490 and 554, respectively). After site-directed mutagenesis (QIAamp kit, QIAGEN, Valencia, Calif.), the mutated RT was ligated into pxxHIV-1LAI MO that contains the entire genome of HIV-1LAI and the same silent restriction sites as p6HRT-MO. Infectious virus was generated by electroporating the mutated xxHIV-1LAI MO plasmid into MT-2 cells as described above. All mutations in recombinant viruses were confirmed by full-length sequencing of the entire RT coding region.

HIVLAI RT A371V = assay: as above; format: cell-based, HIV-1
Description: as §1, §2

[1] = system: HIVLAI RT D67N/K70R/T215F; assay: as above; format: cell-based, HIV-1
Description: as §1, §2

[2] = system: HIVLAI RT D67N/K70R/T215I/A371V/Q509L; assay: as above; format: cell-based, HIV-1
Description: as §1, §2

[3] = system: HIVLAI RT D67N/K70R/A371V/Q509L; assay: as above; format: cell-based, HIV-1
Description: as §1, §2

HIVLAI RT A371V/Q509L = assay: as above; format: cell-based, HIV-1
Description: as §1, §2

[4] = system: HIVLAI RT D67N/K70R/T215F/A371V/Q509L; assay: as above; format: cell-based, HIV-1
Description: as §1, §2

[5] = system: HIVLAI RT 67N/70R/215I/371V; assay: as above; format: cell-based, HIV-1
Description: as §1, §2

[6] = system: HIVLAI RT 67N/70R/215F/371V; assay: as above; format: cell-based, HIV-1
Description: as §1, §2

[7] = system: HIV-1 RT N3481 with "classic" TAMs; conditions: N3481 present with "classic" TAMs; cited from earlier work

For `Cc1cn([C@H]2C[C@H](N=[N+]=[N-])[C@@H](CO)O2)c(=O)[nH]c1=O` [AZT, 3′-azido-3′-dideoxythymidine], the Fold-Resistance (HIVLAI RT 67N/70R/215I; 67N/70R/215I compared to wild-type) was 1.3 fold, the IC50 (HIVLAI RT 67N/70R/215I; Human immunodeficiency virus 1, P4/R5, 67N/70R/215I, mean ± SD) was 0.3 ± 0.2 µM and the Fold-Resistance (HIVLAI RT A371V; A371V compared to wild-type) was 0.7 fold. It also gave an IC50 (HIVLAI RT A371V; Human immunodeficiency virus 1, P4/R5, A371V, mean ± SD) of 0.2 ± 0.04 µM, a Fold-Resistance ([1]; 67N/70R/215F compared to wild-type) of 18 fold and an IC50 ([1]; Human immunodeficiency virus 1, P4/R5, 67N/70R/215F, mean ± SD) of 3.8 ± 2.1 µM. For the same compound, the Fold-Resistance ([2]; 67N/70R/215I/371V/509L compared to wild-type) was 41 fold, the IC50 ([2]; Human immunodeficiency virus 1, P4/R5, 67N/70R/215I/371V/509L, mean ± SD) was 9.4 ± 6.7 µM and the Fold-Resistance ([3]; 67N/70R/371V/509L compared to wild-type) was 39 fold. It also gave an IC50 ([3]; Human immunodeficiency virus 1, P4/R5, 67N/70R/371V/509L, mean ± SD) of 9.1 ± 5.2 µM, a Fold-Resistance (HIVLAI RT A371V/Q509L; A371V/Q509L compared to wild-type) of 1.7 fold and an IC50 (HIVLAI RT A371V/Q509L; Human immunodeficiency virus 1, P4/R5, A371V/Q509L, mean ± SD) of 0.3 ± 0.06 µM. The Fold-Resistance ([4]; 67N/70R/215F/371V/509L compared to wild-type) was 934 fold, the IC50 ([4]; Human immunodeficiency virus 1, P4/R5, 67N/70R/215F/371V/509L, mean ± SD) was 203 ± 40 µM and the Fold-Resistance ([5]; 67N/70R/215I/371V compared to wild-type) was 2.6 fold. For the same compound, the IC50 ([5]; Human immunodeficiency virus 1, P4/R5, 67N/70R/215I/371V, mean ± SD) was 0.6 ± 0.3 µM, the Fold-Resistance ([6]; 67N/70R/215F/371V compared to wild-type) was 22 fold and the IC50 ([6]; Human immunodeficiency virus 1, P4/R5, 67N/70R/215F/371V, mean ± SD) was 4.9 ± 2.9 µM. For the same compound, the “reduction of AZT susceptibility” value [7] was 35 fold.
